From US6518290B1, “Substituted oxazoles and thiazoles derivatives as HPPAr alpha activators” (priority 1999, dated 2003)

Experiments:
Type in all cases: cell-based
[1] = target: T1, human PPAR delta (Homo sapiens, UniProt Q03181); assay: PPAR transient transfection (transactivation) assay in CV-1 cells, PPAR delta; details: PPAR LBD-GAL4 chimera, SPAP reporter, 24 h with compound, read-out: human δEC50
T1 construct: expressed in transfected cells; host or cells: CV-1 cells
T1 sequence (Q03181 211-439 limits assumed): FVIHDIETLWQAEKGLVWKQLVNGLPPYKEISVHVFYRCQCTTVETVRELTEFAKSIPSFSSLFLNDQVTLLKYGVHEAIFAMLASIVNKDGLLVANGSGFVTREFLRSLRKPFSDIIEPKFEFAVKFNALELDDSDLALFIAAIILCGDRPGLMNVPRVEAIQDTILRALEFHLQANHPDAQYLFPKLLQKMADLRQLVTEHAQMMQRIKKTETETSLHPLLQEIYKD
From the text: (§1) Compounds were screened for functional potency in transient transfection assays in CV-1 cells for their ability to activate the PPAR subtypes (transactivation assay). A previously established chimeric receptor system was utilized to allow comparison of the relative transcriptional activity of the receptor subtypes on the same target gene and to prevent endogenous receptor activation from complicating the interpretation of results. See, for example, Lehmann, J. M.; Moore, L. B.; Smith-Oliver, T. A.; Wilkison, W. O.; Willson, T. M.; Kliewer, S. A., An antidiabetic thiazolidinedione is a high affinity ligand for peroxisome proliferator-activated receptor γ (PPARγ), J. Biol. Chem., 1995, 270, 12953-6. The ligand binding domains for murine and human PPAR alpha, PPAR gamma, and PPAR delta were each fused to the yeast transcription factor GAL4 DNA binding domain. CV-1 cells were transiently transfected with expression vectors for the respective PPAR chimera along with a reporter construct containing five copies of the GAL4 DNA binding site driving expression of secreted placental alkaline phosphatase (SPAP) and β-galactosidase. After 16 h, the medium was exchanged to DME medium supplemented with 10% delipidated fetal calf serum and the test compound at the appropriate concentration. After an additional 24 h, cell extracts were prepared and assayed for alkaline phosphatase and β-galactosidase activity. Alkaline phosphatase activity was corrected for transfection efficiency using the β-galactosidase activity as an internal standard (see, for example, Kliewer, S. A., et. al. Cell 83, 813-819 (1995)). Rosiglitazone (BRL 49653) was used as a positive control in the hPPAR gamma assay. The positive control in the hPPAR alpha assays was 2-(2-methyl-3-[3-{3-(4-cyclohexylamino)-[6-(4-fluorophenylpiperazin-1-yl)][1,3,5]triazin-2-ylamino}propyl]phenylthio)-2-methylpropionic acid. The positive control for PPAR delta assays was 2-{2-methyl-4-[({4-methyl-2-{trifluoromethyl)phenyl]-1,3-thiazol-5-yl}methyl)sulfanyl]phenoxy}acetic acid.

[2] = target: T2, human PPAR alpha (Homo sapiens, UniProt Q07869); assay: PPAR transient transfection (transactivation) assay in CV-1 cells, hPPAR alpha; details: PPAR LBD-GAL4 chimera, SPAP reporter, 24 h with compound, read-out: human αEC50
T2 construct: expressed in transfected cells; host or cells: CV-1 cells
T2 sequence (Q07869 239-466 limits assumed): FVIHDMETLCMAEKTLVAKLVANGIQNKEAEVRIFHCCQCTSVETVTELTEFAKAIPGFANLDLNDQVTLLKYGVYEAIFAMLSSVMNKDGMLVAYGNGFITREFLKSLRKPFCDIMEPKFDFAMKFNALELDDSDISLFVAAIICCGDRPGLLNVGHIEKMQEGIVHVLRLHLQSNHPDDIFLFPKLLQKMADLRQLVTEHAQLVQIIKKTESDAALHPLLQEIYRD
From the text: as §1, with “Alkaline phosphatase activity was corrected for transfection efficiency using the β-galactosidase activity as an internal standard (see, for example, Kliewer, S. A., et. al. Cell 83, 813-819 (1995)).” left out

[3] = target: T3, human PPAR gamma (Homo sapiens, UniProt P37231); assay: PPAR transient transfection (transactivation) assay in CV-1 cells, hPPAR gamma; details: PPAR LBD-GAL4 chimera, SPAP reporter, 24 h with compound, read-out: human γEC50
T3 construct: expressed in transfected cells; host or cells: CV-1 cells
T3 sequence (P37231 238-503 limits assumed): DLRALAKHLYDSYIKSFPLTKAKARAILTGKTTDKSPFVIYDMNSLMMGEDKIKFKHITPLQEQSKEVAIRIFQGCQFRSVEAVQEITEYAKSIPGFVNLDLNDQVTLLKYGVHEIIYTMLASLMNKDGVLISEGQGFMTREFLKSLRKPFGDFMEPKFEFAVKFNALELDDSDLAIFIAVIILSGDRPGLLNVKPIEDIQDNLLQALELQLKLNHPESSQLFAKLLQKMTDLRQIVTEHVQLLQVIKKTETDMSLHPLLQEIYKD
From the text: as §1

EC50 [1] [µM] | EC50 [2] [nM] | EC50 [3] [µM] | SMILES
≥ 10 | 17 | ≥ 10 | CCOC(=O)C(C)(C)Oc1ccc(CNC(=O)c2sc(-c3ccc(C(F)(F)F)cc3)nc2C)cc1 [Example 1, 2-Methyl-2-[4-{[(4-methyl-2-[4-trifluoromethylphenyl]thiazol-5-ylcarbonyl)amino]methyl}phenoxy]propionic Acid Ethyl Ester]
2.95 | – | ≥ 10 | Cc1nc(-c2ccc(C(F)(F)F)cc2)sc1C(=O)NCc1ccc(OC(C)(C)C(=O)O)cc1 [Example 2, 2-Methyl-2-[4-{[(4-methyl-2-[4-trifluoromethylphenyl]-thiazol-5-ylcarbonyl)amino]methyl}phenoxy]propionic Acid]
≥ 10 | 230 | ≥ 10 | Cc1nc(-c2ccc(C(F)(F)F)cc2)sc1C(=O)N(C)Cc1ccc(OC(C)(C)C(=O)O)cc1 [Example 6, N-Methyl-2-methyl-2-[4-{[(4-methyl-2-[4-trifluoromethylphenyl]-thiazol-5-ylcarbonyl)amino]methyl}phenoxy]propionic Acid]
≥ 10 | 108 | ≥ 10 | Cc1nc(-c2ccc(C(F)(F)F)cc2)sc1C(=O)NCCc1ccc(OC(C)(C)C(=O)O)cc1 [Example 10, 2-Methyl-2-[4-{[(4-methyl-2-[4-trifluoromethylphenyl]-thiazol-5-ylcarbonyl)amino]ethyl}phenoxy]propionic Acid]
≥ 10 | 5 | 0.85 | Cc1nc(-c2ccc(C(C)(C)C)cc2)sc1C(=O)NCc1ccc(OC(C)(C)C(=O)O)cc1 [Example 13, 2-Methyl-2-[4-{[(4-methyl-2-[4-tertbutylphenyl]-thiazol-5-ylcarbonyl)amino]methyl}phenoxy]propionic Acid]
4.37 | 1 | 2.64 | Cc1nc(-c2ccc(C(C)C)cc2)sc1C(=O)NCc1ccc(OC(C)(C)C(=O)O)cc1 [Example 15, 2-Methyl-2-[4-{[(4-methyl-2-[4-isopropylphenyl]-thiazol-5-ylcarbonyl)amino]methyl}phenoxy]propionic Acid]
≥ 10 | 27 | ≥ 10 | Cc1nc(-c2ccc([N+](=O)[O-])cc2)sc1C(=O)NCc1ccc(OC(C)(C)C(=O)O)cc1 [Example 17, 2-Methyl-2-[4-{[(4-methyl-2-[4-nitrophenyl]-thiazol-5-ylcarbonyl)amino]methyl}phenoxy]propionic Acid]
≥ 10 | 28 | ≥ 10 | Cc1nc(-c2ccc(Cl)c(Cl)c2)sc1C(=O)NCc1ccc(OC(C)(C)C(=O)O)cc1 [Example 21, 2-Methyl-2-[4-{[(4-methyl-2-[3,4-dichlorophenyl]-thiazol-5-ylcarbonyl)amino]methyl}phenoxy]propionic Acid]
9.19 | 7 | ≥ 10 | Cc1nc(-c2ccc(C(F)(F)F)c(F)c2)sc1C(=O)NCc1ccc(OC(C)(C)C(=O)O)cc1 [Example 23, 2-Methyl-2-[4-{[(4-methyl-2-[3-fluoro-4-trifluoromethylphenyl]-thiazol-5-ylcarbonyl)amino]methyl}phenoxy]propionic Acid]
2.7 | 10 | ≥ 10 | Cc1nc(-c2ccc(Br)cc2)sc1C(=O)NCc1ccc(OC(C)(C)C(=O)O)cc1 [Example 25, 2-Methyl-2-[4-{[(4-methyl-2-[4-bromophenyl]-thiazol-5-ylcarbonyl)amino]methyl}phenoxy]propionic Acid]
4.08 | 2 | 8.82 | CCc1ccc(-c2nc(C)c(C(=O)NCc3ccc(OC(C)(C)C(=O)O)cc3)s2)cc1 [Example 27, 2-Methyl-2-[4-{[(4-methyl-2-[4-ethylphenyl]-thiazol-5-ylcarbonyl)amino]methyl}phenoxy]propionic Acid]
≥ 10 | 122 | ≥ 10 | Cc1nc(-c2ccccc2)sc1C(=O)NCc1ccc(OC(C)(C)C(=O)O)cc1 [Example 29, 2-Methyl-2-[4-{[(4-methyl-2-phenylthiazol-5-ylcarbonyl)amino]methyl}phenoxy]propionic Acid]
5.35 | 14 | ≥ 10 | Cc1nc(-c2ccc(Cl)cc2)sc1C(=O)NCc1ccc(OC(C)(C)C(=O)O)cc1 [Example 33, 2-Methyl-2-[4-{[(4-methyl-2-[4-chlorophenyl]-thiazol-5-ylcarbonyl)amino]methyl}phenoxy]propionic Acid]
4.59 | 4 | ≥ 10 | Cc1nc(-c2ccc(OC(F)(F)F)cc2)sc1C(=O)NCc1ccc(OC(C)(C)C(=O)O)cc1 [Example 35, 2-Methyl-2-[4-{[(4-methyl-2-[4-trifluoromethoxyphenyl]-thiazol-5-ylcarbonyl)amino]methyl}phenoxy]propionic Acid]
≥ 10 | 20 | ≥ 10 | COc1ccc(-c2nc(C)c(C(=O)NCc3ccc(OC(C)(C)C(=O)O)cc3)s2)cc1 [Example 37, 2-Methyl-2-[4-{[(4-methyl-2-[4-methoxyphenyl]-thiazol-5-ylcarbonyl)amino]methyl}phenoxy]propionic Acid]
2.48 | 36 | ≥ 10 | C#Cc1ccc(-c2nc(C)c(C(=O)NCc3ccc(OC(C)(C)C(=O)O)cc3)s2)cc1 [Example 39, 2-Methyl-2-[4-{[(4-methyl-2-[4-acetylenylphenyl]-thiazol-5-ylcarbonyl)amino]methyl}phenoxy]propionic Acid]
≥ 10 | 5 | 0.832 | CC(C)(Oc1ccc(CNC(=O)c2sc(-c3ccc(C(F)(F)F)cc3)nc2C(F)(F)F)cc1)C(=O)O [Example 41, 2-Methyl-2-[4-{[(4-trifluoromethyl-2-[4-trifluoromethylphenyl]-thiazol-5-ylcarbonyl)amino]methyl}phenoxy]propionic Acid]
1.64 | 400 | ≥ 10 | Cc1nc(-c2ccc(C(F)(F)F)cc2)oc1C(=O)NCc1ccc(OC(C)(C)C(=O)O)cc1 [Example 45, 2-Methyl-2-[4-{[(4-methyl-2-[4-trifluoromethylphenyl]-oxazol-5-ylcarbonyl)amino]methyl}phenoxy]propionic Acid]
